From patent US4559326A, “Antiinflammatory compositions and methods” (Pfizer Inc., priority 1985, dated 1985)
Where a name gives a salt, the structure may show the parent alone.

Tested on: Gastric lesions induced by the ethanolamine salt of piroxicam
Assay: Protective effect of inositol on piroxicam-induced gastric lesions in rats
Type: in vivo, rat (CD strain, Sprague-Dawley)
Conditions: for Significance p < 0.05: two-tailed Student's t-test; for Lesions/Rat (X +/- SE): mean (SE)
Experimental: Adult male "specific pathogen free" rats weighing 140-160 grams of the CD strain (Sprague-Dawley) were obtained from Charles River Breeding Laboratories (Kingston, N.Y.). The animals were acclimated for approximately one week and tested when they reached a body weight of 200-225 grams. The rats were fasted for 16 hours and randomized into groups consisting of 8 to 20 animals which were normalized with regard to their average body weight.
Gastric ulcers were induced in the animals by orally dosing them with a single 120 mg/kg dose of piroxicam (ethanolamine salt) in 2 ml. of aqueous 0.1% methylcellulose (pH=6.8). Those animals receiving a second medicinal agent separately received the second drug in an additional 2 ml. of the same medium at about the same time. Six and one-half hours later, the animals were sacrificed by cervical dislocation and autopsied. The stomachs were surgically removed, dissected along the greater curvature and rinsed with cold water. The stomachs were individually scored for both linear and punctate lesions. The total number of lesions was used for scoring purposes. The data obtained from each group of rats were analyzed after calculation of the mean number +/- the standard error of total gastric lesions. The values obtained were also compared to the controls which received only piroxicam by the two-tailed Student's T-Test for nonpaired data.

SMILES	ED50 (Rattus norvegicus, 6.5 h, oral, linear regression analysis, lesions induced by 120 mg/kg piroxicam ethanolamine salt, read-out: ED50 (dose of inositol required to inhibit 50% of control gastric lesion)) [mg/kg]	Reduction of piroxicam-induced gastric lesions (healthy fasted rat, statement in words)	Significance p < 0.05 (inositol 10 mg/kg oral vs piroxicam-only control)	Lesions/Rat (X +/- SE) (inositol 10 mg/kg oral, with 120 mg/kg oral piroxicam ethanolamine salt, fasted male rats, 6.5 h, 40 rats)	Significance p < 0.05 (inositol 33 mg/kg oral vs piroxicam-only control)	Lesions/Rat (X +/- SE) (inositol 33 mg/kg oral, with 120 mg/kg oral piroxicam ethanolamine salt, fasted male rats, 6.5 h, 40 rats)	Significance p < 0.05 (inositol 100 mg/kg oral vs piroxicam-only control)	Lesions/Rat (X +/- SE) (inositol 100 mg/kg oral, with 120 mg/kg oral piroxicam ethanolamine salt, fasted male rats, 6.5 h, 40 rats)	Significance p < 0.05 (inositol 333 mg/kg oral vs piroxicam-only control)	Lesions/Rat (X +/- SE) (inositol 333 mg/kg oral, with 120 mg/kg oral piroxicam ethanolamine salt, fasted male rats, 6.5 h, 40 rats)	Lesions/Rat (X +/- SE) (control: 120 mg/kg oral piroxicam ethanolamine salt alone, inositol 0 mg/kg, 6.5 h, 30 rats)
O[C@H]1[C@H](O)[C@@H](O)[C@H](O)[C@@H](O)[C@H]1O [Inositol, cis-1,2,3,4-trans-4,6-cyclohexanehexol]	85	significantly reduces	+ (p < 0.05)	4.7 (0.9) Lesions/Rat	+ (p < 0.05)	5.2 (0.7) Lesions/Rat	+ (p < 0.05)	3.6 (0.6) Lesions/Rat	+ (p < 0.05)	3.0 (0.8) Lesions/Rat	–
CN1C(C(=O)Nc2ccccn2)=C(O)c2ccccc2S1(=O)=O [ethanolamine salt of piroxicam]	–	–	–	–	–	–	–	–	–	–	7.5 (0.8) Lesions/Rat
